Molecular target: Human O-GlcNAcase (His-Tagged hOGA) (Homo sapiens (Human), UniProt O60502)
Experiment: Human O-GlcNAcase enzyme inhibition assay (FL-GlcNAc fluorescence)
Assay type: biochemical
Settings: Enzymatic OGA IC50 (M), His-Tagged hOGA 20 nM, FL-GlcNAc 10 μM, 60 min at room temperature, pH 6.5
Description: Then, 20 nM of His-Tagged hOGA and 10 μM of FL-GlcNAc (Fluorescein mono-beta-D-(2-deoxy-2-N-acetyl) glucopyranoside; Marker Gene Technologies Inc, M1485) were added to the 384-well plate for a final volume of 20 μl.

Human O-GlcNAcase (His-Tagged hOGA), sequence (O60502 whole entry): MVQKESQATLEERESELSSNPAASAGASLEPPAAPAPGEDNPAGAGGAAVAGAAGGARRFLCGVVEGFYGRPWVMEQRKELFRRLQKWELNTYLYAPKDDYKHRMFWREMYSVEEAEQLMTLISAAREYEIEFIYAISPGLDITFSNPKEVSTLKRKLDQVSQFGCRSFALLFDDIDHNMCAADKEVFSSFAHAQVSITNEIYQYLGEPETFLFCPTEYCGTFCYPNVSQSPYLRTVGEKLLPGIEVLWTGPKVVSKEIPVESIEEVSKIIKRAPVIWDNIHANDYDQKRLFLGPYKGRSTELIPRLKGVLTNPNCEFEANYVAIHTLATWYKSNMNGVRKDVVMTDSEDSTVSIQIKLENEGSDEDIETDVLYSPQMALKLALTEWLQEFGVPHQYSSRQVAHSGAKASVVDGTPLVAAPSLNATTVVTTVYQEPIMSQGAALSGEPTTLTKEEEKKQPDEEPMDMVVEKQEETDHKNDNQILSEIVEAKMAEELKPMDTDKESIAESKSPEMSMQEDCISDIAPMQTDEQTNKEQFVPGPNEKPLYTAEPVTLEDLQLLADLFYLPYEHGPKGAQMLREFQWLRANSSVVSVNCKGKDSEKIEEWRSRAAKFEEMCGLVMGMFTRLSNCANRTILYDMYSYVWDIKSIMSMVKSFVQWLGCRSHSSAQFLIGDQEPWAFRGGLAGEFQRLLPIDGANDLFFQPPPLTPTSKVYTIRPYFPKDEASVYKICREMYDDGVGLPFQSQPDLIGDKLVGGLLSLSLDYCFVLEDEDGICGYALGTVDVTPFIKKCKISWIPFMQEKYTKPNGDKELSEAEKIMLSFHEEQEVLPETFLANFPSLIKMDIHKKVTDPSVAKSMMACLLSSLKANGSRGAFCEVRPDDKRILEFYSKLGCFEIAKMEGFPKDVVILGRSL

Compared with `CC(=O)Nc1nc2c(s1)CN(C(C)c1ccc3c(c1)OCO3)CC2` (racemic) [Example 3, N-(5-(1-(benzo[d][1,3]dioxol-5-yl)ethyl)-4,5,6,7-tetrahydrothiazolo[5,4-c]pyridin-2-yl)acetamide], `CC(c1ccc2c(c1)OCC2)N1CCn2nc(-c3ccc(S(C)(=O)=O)cc3)nc2C1` (racemic) [Example 17] is higher in IC50: 2e-07 to 1e-06 M for the first, 1e-06 to 1e-05 M for the second.

Same assay, conditions: His-Tagged hOGA 20 nM, FL-GlcNAc 10 μM, 60 min at room temperature, pH 6.5; read-out: Enzymatic OGA IC50

First: CC(c1ccc2c(c1)OCC2)N1CCc2nn(-c3ccc(F)cc3)cc2C1 (racemic) [Example 6, 5-(1-(2,3-dihydrobenzofuran-6-yl)ethyl)-2-(4-fluorophenyl)-4,5,6,7-tetrahydro-2H-pyrazolo[4,3-c]pyridine]
Second: CC(c1ccc2c(c1)OCC2)N1CCc2nn(-c3ccccc3)cc2C1 (single isomer, unassigned) [Example 12]
The IC50 of the first is lower: 5e-08 to 2e-07 M for the first, 1e-06 to 1e-05 M for the second. The first is the more potent here.

Compared with `CC(c1ccc2c(c1)OCC2)N1CCc2nn(C3CCOCC3)cc2C1` (centres unmarked) [Example 15, 5-(1-(2,3-dihydrobenzofuran-6-yl)ethyl)-1-(tetrahydro-2H-pyran-4-yl)-4,5,6,7-tetrahydro-1H-pyrazolo[4,3-c]pyridine or 5-(1-(2,3-dihydrobenzofuran-6-yl)ethyl)-2-(tetrahydro-2H-pyran-4-yl)-4,5,6,7-tetrahydro-2H-pyrazolo[4,3-c]pyridine], `CC(c1ccc2c(c1)OCO2)N1CCc2ccccc2C1` (racemic) [Example 2, 2-(1-(benzo[d][1,3]dioxol-5-yl)ethyl)-1,2,3,4-tetrahydroisoquinoline] is lower in IC50: 1e-06 to 1e-05 M for the first, 2e-07 to 1e-06 M for the second.

Compared with `CC(c1ccc2c(c1)OCC2)N1CCn2nc(Nc3ccc(C#N)cn3)nc2C1` (racemic) [Example 19, 6-((7-(1-(2,3-dihydrobenzofuran-6-yl)ethyl)-5,6,7,8-tetrahydro-[1,2,4]triazolo[1,5-a]pyrazin-2-yl)amino)nicotinonitrile], `CC(c1ccc2c(c1)OCC2)N1CCc2c(cnn2-c2ccccc2)C1` (racemic) [Example 7, 5-(1-(2,3-dihydrobenzofuran-6-yl)ethyl)-1-phenyl-4,5,6,7-tetrahydro-1H-pyrazolo[4,3-c]pyridine] is lower in IC50: 1e-06 to 1e-05 M for the first, 5e-08 to 2e-07 M for the second.

First: 5-(1-(2,3-dihydrobenzofuran-6-yl)ethyl)-1-(pyridin-2-yl)-4,5,6,7-tetrahydro-1H-pyrazolo[4,3-c]pyridine [Example 9]
Second: CC(c1ccc2c(c1)OCC2)N1CCn2nc(-c3cccnc3)nc2C1 (racemic) [Example 18, 7-(1-(2,3-dihydrobenzofuran-6-yl)ethyl)-2-(pyridin-3-yl)-5,6,7,8-tetrahydro-[1,2,4]triazolo[1,5-a]pyrazine]
The IC50 of the first is lower: 5e-08 to 2e-07 M for the first, 1e-06 to 1e-05 M for the second. The first is the more potent here.

First: CC(c1ccc2c(c1)OCC2)N1CCc2nn(Cc3ncccn3)cc2C1 (racemic) [Example 20, 5-(1-(2,3-dihydrobenzofuran-6-yl)ethyl)-2-(pyrimidin-2-ylmethyl)-4,5,6,7-tetrahydro-2H-pyrazolo[4,3-c]pyridine]
Second: CC(c1ccc2c(c1)OCC2)N1CCc2c(cnn2-c2ccc(F)cc2)C1 (racemic) [Example 5, 5-(1-(2,3-dihydrobenzofuran-6-yl)ethyl)-1-(4-fluorophenyl)-4,5,6,7-tetrahydro-1H-pyrazolo[4,3-c]pyridine]
The IC50 of the first is higher: 2e-07 to 1e-06 M for the first, 5e-08 to 2e-07 M for the second.

`CC(c1ccc2c(c1)OCC2)N1CCc2nn(-c3ccccc3)cc2C1` (racemic) [Example 8, 5-(1-(2,3-dihydrobenzofuran-6-yl)ethyl)-2-phenyl-4,5,6,7-tetrahydro-2H-pyrazolo[4,3-c]pyridine] and `CC(c1ccc2c(c1)OCC2)N1CCc2n[nH]cc2C1` (racemic) [Example 4, 5-(1-(2,3-dihydrobenzofuran-6-yl)ethyl)-4,5,6,7-tetrahydro-2H-pyrazolo[4,3-c]pyridine] fall in the same range of IC50: 5e-08 to 2e-07 M for the first, 5e-08 to 2e-07 M for the second.

Compared with `CC(c1ccc2c(c1)OCC2)N1CCc2nn(-c3ccccc3)cc2C1` (single isomer, unassigned) [Example 13], `CC(c1ccc2c(c1)OCC2)N1CCc2c(cnn2Cc2ncccn2)C1` (racemic) [Example 21, 5-(1-(2,3-dihydrobenzofuran-6-yl)ethyl)-1-(pyrimidin-2-ylmethyl)-4,5,6,7-tetrahydro-1H-pyrazolo[4,3-c]pyridine] is higher in IC50: 5e-08 to 2e-07 M for the first, 2e-07 to 1e-06 M for the second. The first is the more potent here.

First: CC(=O)Nc1ncc2c(n1)CCN(C(C)c1ccc3c(c1)OCO3)C2 (racemic) [Example 1, N-(6-(1-(benzo[d][1,3]dioxol-5-yl)ethyl)-5,6,7,8-tetrahydropyrido[4,3-d]pyrimidin-2-yl)acetamide]
Second: CC(c1ccc2c(c1)OCC2)N1CCc2nc(-c3ccc(F)cc3)sc2C1 (racemic) [Example 11, 5-(1-(2,3-dihydrobenzofuran-6-yl)ethyl)-2-(4-fluorophenyl)-4,5,6,7-tetrahydrothiazolo[5,4-c]pyridine]
The IC50 of the first is higher: 1e-06 to 1e-05 M for the first, 2e-07 to 1e-06 M for the second.

First: CC(c1ccc2c(c1)OCC2)N1CCc2c(cnn2-c2cncnc2)C1 (racemic) [Example 14, 5-(1-(2,3-dihydrobenzofuran-6-yl)ethyl)-1-(pyrimidin-5-yl)-4,5,6,7-tetrahydro-1H-pyrazolo[4,3-c]pyridine]
Second: 5-(1-(2,3-dihydrobenzofuran-6-yl)ethyl)-2-(pyridin-2-yl)-4,5,6,7-tetrahydro-2H-pyrazolo[4,3-c]pyridine [Example 10]
The IC50 of the first is higher: 2e-07 to 1e-06 M for the first, 5e-08 to 2e-07 M for the second. The second is the more potent here.
